# Patent US9713613B2, “Methods and compositions for the treatment of cancer and related hyperproliferative disorders” (priority 2007, dated 2017)
# Tested on: RPMI8226 cells
# Assay: RPMI8226 cell growth, MTT assay
# Assay type: cell-based, human
# Conditions: 5 μM, 48 hours
# Experimental: 10,000 MOLT-4 cells (FIGS. 35A-35C) and 20,000 RPM18226 cells (FIGS. 35D-35F) were seeded onto 96 well plate in RPMI 1640 medium containing 5% FBS or fat-free charcoal treated serum (FF-FBS) for 24 hours at 37 C. MOLT-4 and RPM18226 cells were treated for additional 48 hours with different concentrations of compound 19 (None control without DMSO, Vehicle with DMSO, 1, 2, 5, 10 and 20 μM in DMSO; RPM18226 cells also were treated with 3 μM in DMSO). At the end of 48 hours cells were subjected to MTT assay to determine viability. Values are depicted as means±SD; *P<0.05.
# 20,000 MOLT-4 cells (FIGS. 36A-36C) and 20,000 RPM18226 cells (FIGS. 36D-36F) cells were seeded onto 96 well plates in RPMI 1640 Medium containing 5% Fetal bovine serum (FBS) or 5% fat free charcoal treated serum (FF-FBS) for 24 hours at 37 C. Cells then were treated for additional 48 hours with different concentrations of compound 17 (None control without DMSO, Vehicle with DMSO, 1, 2, 3, 5, 10 and 20 μM in DMSO). At the end of the 48 hours treatment cells were subjected to MTT assay to determine viability. Values are depicted as means±SD (n=3); **P<0.001; ***P<0.0001.
# RPM18226 cells were grown under the same conditions as the MOLT-4 cells. 20,000 cells were seeded into 96 well plates for 24 hrs prior to treatment with increasing concentrations of compound 19 as described for MOLT-4 cells. […]
smiles,measurement,value
"CCCc1cc(-c2nc(-c3ccc(NS(C)(=O)=O)cc3)cs2)ccn1 [Compound 19, N-(4-(2-(2-propylpyridin-4-yl)thiazol-4-yl)phenyl)methanesulfonamide]",growth inhibition in 5% FF FBS relative to 5% FBS,about 1.5
